From article PMC4411110 (PLoS ONE, 2015)
Entries after “also recorded” stand apart in the source; their conditions may differ.

Legend:
MOG35-55-induced EAE = test: EAE mouse model of MS, clinical paralysis score; type: in vivo, female C57BL/6 mice; conditions: EAE mice, oral daily from onset of signs, TM5484 5 mg/kg/d, fingolimod 0.5 mg/kg, 6α-methylprednisolone 5 mg/kg
Experimental: (§1) All animal experiments conformed to the National Health Guide for the Care and Use of Laboratory Animals and were approved by the Animal Committee at Tohoku University. Studies were performed on 11-week-old female C57BL/6 mice (n = 8–10, each group) and 10-week-old Lewis rats (n = 6–8, each group), obtained from SJC, Japan SLC (Hamamatsu, Shizuoka, Japan). Animals were housed under a 12h light-dark cycle and given regular chow, MF (Oriental Yeast Co., Ltd.).
Experimental autoimmune encephalomyelitis (EAE) was induced in mice as described previously. Briefly, on day 0, 200 microgramme of myelin oligodendrocyte glycoprotein^35–55 (MOG^35–55) peptide was injected s.c, twice, in the lower and upper back of the mice, in an equal volume of complete Freund’s adjuvant (Hooke Laboratories, Inc.). Next, 200 ng of pertussis toxin (Hooke Laboratories, Inc.) dissolved in PBS was applied i.p. On day 1, another 200 ng of pertussis toxin was administered. For rats, 200 microgramme of myelin basic protein^69-88 (MBP^69-88) was injected (Hooke Laboratories, Inc.) twice, in the lower back on day 0. Animals were scored for motor paralysis on a daily basis. Disease severity was assessed using a scale ranging from 0 to 5 (Hooke Laboratories, Inc.): 0, normal; 1, limp tail; 1.5, Limp tail and hind leg inhibition; 2, Limp tail and weakness of hind legs.; 2.5, Limp tail and dragging of hind legs; 3, Limp tail and complete paralysis of hind legs; 3.5, Limp tail and complete paralysis of hind legs and Hind legs are together on one side of body; 4, Limp tail, complete hind leg and partial front leg paralysis; 4.5, Complete hind and partial front leg paralysis, no movement around the cage; 5, Mouse is spontaneously rolling in the cage. Mice were typically observed for 28 days, during which they will remain chronically paralyzed.

[1] = In vitro BBB penetration assay (BBB Kit RBT-24H); conditions: rat
Experimental: (§2) This BBB model was reconstructed by the culture of both primary rat brain micro vascular endothelial cells and rat brain pericytes separated by a macroporous Millicell membrane (24 wells, pore size: 3.0 μm, Millipore, Bedford, MA, USA). Briefly, we pre-incubated the BBB kits at 37 °C in 5% CO2 conditions for 4–5 days, in order to strongly reconstruct the barrier integrity and tight-junctions. To evaluate the barrier integrity and confirm the functionality of the tight-junctions, trans-endothelial electrical resistance (TEER) was measured at day 5-post incubation. Assays were carried out using TEER values in the range of 150-to 300-Ω cm^2 [11]. Once the tight junctions reach a TEER of 300-Ω cm^2, 0.9 mL PBS-based assay medium was added to blank 24-well culture plates. Prior to incubation, selected compounds were diluted in DMSO 100%. The compounds suspended in 0.2 mL assay medium were fortified into the apical side and incubated for 30 min. Next, the medium from both the apical and the basolateral sides were collected and further analyzed by liquid chromatography–mass spectrometry.

[2] = test system: spinal cord (lumbar segments); test: Histology of spinal cord of EAE mice; type: in vivo, female C57BL/6 mice
Excerpt: Mice were perfused in the heart with saline 0.9% followed by neutral-buffered formalin 10% (n = 3-4/group). Slides from different sections of the spinal cord were immersed and fixed overnight in 10% neutral-buffered formalin. Next, samples were transfered and immersed in a 10, 20 and 30% sucrose solution for consecutive nights. Sections were embedded in O.C.T compounds (Sakura Finetek, Japan) for the subsequent immunostaining study. Four sections of the spinal cord from each group were examined. Since the clinical manifestations are typically initiated as limp tail and hind-limb paralysis in this model, we focused on lumbar spinal segments. Frozen specimens were then incubated overnight at room temperature and stained with Cd11b for macrophage infiltration (Abcam), myelin basic protein (MBP) for demyelination, neurofilament non-phosphorylated (SMI-32) for axonal damage, collagen IV for extracellular matrix depositions (Abcam) and fibrinogen (Funakoshi, Japan). Incubation for 2 hs at room temperature in corresponding biotinylated goat secondary antibody was performed. For immunofluorescence, the sections were incubated overnight at room temperature using primary antibody Iba-1 for microglia activation (Wako Chemicals). After wash in PBS, the sections were then incubated in corresponding fluorescent goat secondary antibody (Wako Chemicals). For Cd11b, the number of positive macrophage was quantified as the total cells per selected area. The area of demyelination was calculated as the percentage of negative staining for MBP per selected area. As for axonal damage and collagen IV deposition, the positive staining per selected area was analyzed and calculated as the percentage per total area. For Quantification analysis was assessed by ImageJ TM software (version 1.440, National Institute of Health, Bethesda, MD, USA).

[3] = test system: MOG35-55-induced EAE, motor coordination; test: Foot print analysis in EAE mice; type: in vivo, female C57BL/6 mice
Experimental: Briefly, to obtain footprints, the hind- and forefeet of the mice were coated with black non-toxic paint. The floor of the open field box was covered with white paper. Each mouse was placed in a corner of the open field and allowed to walk across the paper, leaving a track of footprints. If a mouse didn’t walk forward, the task was considered a failure. For each step parameter, three values were measured from each run, excluding footprints made at the beginning and end of the run where the animal was initiating and finishing movement respectively. The mean value of each set of three values was used for analysis.

[4] = test system: gene expression in spinal cord and spleen; test: qRT-PCR gene expression in spinal cord and spleen of EAE mice; type: in vivo, female C57BL/6 mice
Experimental: Spinal cord was harvested from mice and snap frozen in liquid nitrogen (n = 6–7, each group). Total RNA was extracted from spinal cord and spleen using ISOGEN (Nippon Gene). qRT-PCR analysis was performed as described previously. Briefly, qRT-PCR was performed on a LightCycler rapid thermal cycler system using a LightCycler 480 SYBR Green I Master (Roche Applied Science) according to the manufacturer's instructions. Data were analyzed by using the comparative Ct method as means of relative quantification, normalized to an endogenous reference (b-actin, Actb). The sequences of the primers are described below: […]

MBP69-88-induced EAE = test: EAE rat model of MS, clinical paralysis score; type: in vivo; conditions: EAE Lewis rats, from onset of signs, dpi 15; TM5484 5 mg/kg/d, fingolimod 0.5 mg/kg
Experimental: as §1
Experimental autoimmune encephalomyelitis (EAE) was induced in mice as described previously. […] Animals were scored for motor paralysis on a daily basis. Disease severity was assessed using a scale ranging from 0 to 5 (Hooke Laboratories, Inc.): 0, normal; 1, limp tail; 1.5, Limp tail and hind leg inhibition; 2, Limp tail and weakness of hind legs.; 2.5, Limp tail and dragging of hind legs; 3, Limp tail and complete paralysis of hind legs; 3.5, Limp tail and complete paralysis of hind legs and Hind legs are together on one side of body; 4, Limp tail, complete hind leg and partial front leg paralysis; 4.5, Complete hind and partial front leg paralysis, no movement around the cage; 5, Mouse is spontaneously rolling in the cage. […]

in vitro = conditions: rat
Experimental: as §2

[5] = test system: in vitro model of BBB (primary rat brain micro vascular endothelial cells and rat brain pericytes); test: In vitro BBB penetration assay (BBB Kit RBT-24H); conditions: in vitro BBB model, apical to basolateral, 30 min, n = 3
Experimental: as §2

C[C@H]1C[C@@H]2[C@H]([C@@H](O)C[C@@]3(C)[C@H]2CC[C@]3(O)C(=O)CO)[C@@]2(C)C=CC(=O)C=C12 [6α-methylprednisolone]
motor paralysis score (MOG35-55-induced EAE): ameliorated the motor paralysis | motor paralysis score (MOG35-55-induced EAE; listed as 6-α methylprednisone): attenuated the paralysis score to the level observed with TM5484

CCCCCCCCc1ccc(CCC(N)(CO)CO)cc1 [fingolimod]
Papp at 30 min [1]: 56 ×10⁻⁶ cm/s | fibrin (fibrinogen) deposition [2]: no changes were observed | collagen IV deposition ([2]; dpi 28): able to ameliorate collagen IV deposition | demyelination (anti-MBP staining) ([2]; dpi 28): reduced | macrophage accumulation and microglia activation (Cd11b and Iba-1 staining) ([2]; dpi 28, TM5484 5 mg/kg/d, fingolimod 0.5 mg/kg/d): significantly reduced; also recorded: ameliorated | stride length ([3]; dpi 28, TM5484 5 mg/kg/d, fingolimod 0.5 mg/kg): 5.48 cm | stride length (in words) ([3]; oral administration): significantly preserved the stride length | motor paralysis score (MOG35-55-induced EAE): ameliorated the motor paralysis; also recorded: attenuated the paralysis score to the level observed with TM5484 | BDNF expression ([4]; spinal cord): did not restore BDNF expression | ChAT expression ([4]; spinal cord): up-regulated ChAT expression | PAI-1 mRNA expression ([4]; spinal cord): no effects | gene expression of inflammatory markers (TNF-α, IL-6, Ccl2, Cd68) ([4]; spinal cord and spleen, dpi 28, treatment from onset of paralysis): able to modulate these inflammatory effects | BDNF expression ([4]; spinal cord, listed as Fingolimod): no effects | expression of IL-10 ([4]; spleen): upregulated | paralysis score at the peak of the paralysis (MBP69-88-induced EAE): reduced the paralysis score to a level similar to TM5484

CC(C)NCC(O)COc1cccc2ccccc12 (stereo not shown) [Propanolol]
Papp at 30 min (in vitro): 31.3 ×10⁻⁶ cm/s

O=C(COCC(=O)Nc1ccc(Cl)cc1C(=O)O)Nc1cccc(-c2ccoc2)c1 [TM5441]
apparent permeability coefficient (Papp) [5]: 32.1 x 10^–6 cm/s
